Data on 8 molecules can be found in US20260374766A1, “METHODS FOR TREATING CANCER” (Antares Therapeutics, Inc., priority 2022, published 2026).

Structures are written as SMILES. Where two headings read alike, the source gives them in different places. A value given as a limit tells only on which side of the number the result lay.

Experiment [1] concerns NUGC3 p53 Y220C. Briefly: Cell Proliferation Assay (CellTiter-Glo, CTG), NUGC3 p53 Y220C. The class given is cell-based. Particulars: Homo sapiens, NUGC-3, 120 h, 5 days, CellTiter-Glo. The essentials:
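NClH1299 lines stably transduced with Tet-inducible p53 Y220C or R273H, plus NUGC3, were treated with compound for 5 days at 250-500 cells/well. IC50 derived from CellTiter-Glo luminescent signal after 10 min room-temperature incubation.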
For orientation: In ATP-based viability assays light output follows the ATP content of the culture.

For experiment [2], the system named is H1299 p53 R273H. The experiment in a line: Cell Proliferation Assay (CellTiter-Glo, CTG), H1299 p53 R273H (NClH1299-inducible p53 R273H). The format is cell-based. Particulars: Homo sapiens, NCI-H1299, 120 h, 5 days, CellTiter-Glo. The procedure, abridged: (§1)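 Tet-One inducible p53 Y220C or R273H constructs were stably introduced into NCI-H1299 by lentiviral transduction; NUGC3 was used as is. Cells (250-500 per well) were exposed to compound for 5 days, then CellTiter-Glo was added for 10 min at room temperature and IC50 was calculated from luminescence.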

For experiment [3], the target named is T1, p53 Y220C mutant protein (amino acid residues 94-293) (Homo sapiens, UniProt P04637, Y220C).
T1 construct: p53 Y220C mutant protein (amino acid residues 94-293)
Briefly: Surface Plasmon Resonance (SPR) assay, Kd_kinetic. The class given is binding. The conditions noted are these: SPR, p53 Y220C, read-out: SPR P53 Y220C KD kinetic. The essentials: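 Kd values come from fitting sensorgrams to a 1:1 binding model. Sensorgrams were recorded on a Biacore 8K at 16 or 20 °C in pH 7.5 Tris buffer with 100 mM NaCl, 1 mM DTT, detergents and 1% DMSO.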

Experiment [4] has as its target T1, p53 Y220C mutant protein (amino acid residues 94-293). Briefly: Thermal Shift Assay (TSA), dTM. The conditions noted are these: for ΔTm at 10 µM: 10 uM compound; for ΔTm at 100 µM: 100 uM compound. The format is binding. The essentials:
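Differential scanning fluorimetry with Sypro Orange on 5 μM p53 Y220C residues 94-293, compound tested at 10 μM or 100 μM after 3 hours at 20 °C; buffer 20 mM HEPES, pH7.4, 100 mM NaCl, 1% DMSO.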

Experiment [5] concerns the target p53 Y220C (Homo sapiens, UniProt P04637, Y220C). The experiment in a line: Luciferase Reporter Assay (Luc), p53 response element, NClH1299 cells with inducible p53 Y220C. The format is cell-based. Particulars: luciferase reporter, NClH1299 inducible p53 Y220C, 6 hour; for AC50: read-out: Luc P53 Y220C AC50. The essentials: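 24 h dox pre-induction (0.5 ug/mL), then 6 h compound; One-Glo luminescent read.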

The subject of experiment [6] is H1299 p53 Y220C. The experiment in a line: Cell Proliferation Assay (CellTiter-Glo, CTG), H1299 p53 Y220C (NClH1299-inducible p53 Y220C). The format is cell-based. Particulars: Homo sapiens, NCI-H1299, 120 h, 5 days, CellTiter-Glo. The essentials:
as §1

The mark [7] stands for this setting: NClH1299-inducible p53 R273H cells.
[8] abbreviates: p53 Y220C, read-out: TSA P53 Y220C dTM.
[9] abbreviates: NClH1299-inducible p53 Y220C cells.
The mark [10] stands for this setting: thermal shift, read-out: TSA P53 Y220C dTM (10 uM).
Where [11] appears, read: thermal shift, read-out: TSA P53 Y220C dTM (100 uM).
Where [12] appears, read: 10 uM tool compound as positive control.

`CNC(=O)c1cnc(OC)c(NCC#Cc2cc3c(N[C@@H]4CCN(C)C[C@@H]4F)cccn3c2SC(F)(F)F)c1` [Example 256]: the IC50 in experiment [1] (NUGC3 cells) is less than 750 nM; in experiment [2] (setting [7]), 5000 to 8000 nM; in experiment [6] (setting [9]), less than 750 nM. Also, the equilibrium dissociation constant (Kd) in experiment [3] was less than 10 nM. Besides, the ΔTm at 10 µM in experiment [4] (setting [8]) is not below 10 °C. In experiment [5] (AC50), the AC50 is less than 750 nM. Further, the Emax in experiment [5] (Emax) is more than 90%.

As for `CNC(=O)c1ccc(OC)c(NCC#Cc2nc3c(N[C@@H]4CCNC[C@@H]4F)cccn3c2SC(F)F)n1` [Example 193], the values for the IC50 in experiment [1] (NUGC3 p53 Y220C), in experiment [2] (H1299 p53 R273H) and in experiment [6] (H1299 p53 Y220C) were less than 750 nM, 8000 to 10000 nM and less than 750 nM, respectively. The Kd in experiment [3] (kinetic KD) was 10 to 100 nM. Also, the ΔTm at 10 µM in experiment [4] (setting [10]) was not below 10 °C. Moreover, the ΔTm at 100 µM in experiment [4] (setting [11]) is not below 10 °C. In experiment [5] (setting [12]), this molecule came in with a maximal response (Emax) of 70 to 80%. Also, the half-maximal activity concentration (AC50) in experiment [5] is less than 750 nM.

Regarding `COc1cc(S(C)(=O)=O)ccc1NCC#Cc1nc2c(NC3CCN(CCS(C)(=O)=O)CC3)cccn2c1CC(F)(F)F` [Example 5, N-(2-{3-[(4-methanesulfonyl-2-methoxyphenyl)amino]prop-1-yn-1-yl}-3-(2,2,2-trifluoroethyl)imidazo[1,2-a]pyridin-8-yl)-1-(2-methanesulfonylethyl) piperidin-4-amine], the IC50 in experiment [1] (NUGC3 p53 Y220C) was 1500 to 3000 nM; in experiment [2] (H1299 p53 R273H), not below 10000 nM; in experiment [6] (H1299 p53 Y220C), more than 3000 nM. The Kd in experiment [3] (kinetic KD) is 10 to 100 nM. The ΔTm at 10 µM in experiment [4] (setting [10]) lay in the range of 5 to 10 °C. Further, the ΔTm at 100 µM in experiment [4] (setting [11]) lay in the range of 5 to 10 °C. Also, the Emax in experiment [5] (setting [12]) lay within 80 to 90%. The AC50 in experiment [5] is more than 3000 nM.

Regarding `CNC(=O)c1ccc(OC)c(NCC#Cc2nn3c(N[C@@H]4CCN(C)C[C@@H]4F)cccc3c2SC(F)(F)F)n1` [Example 234], the half-maximal inhibitory concentration (IC50) in experiment [1] (NUGC3 cells) was less than 750 nM; in experiment [2] (setting [7]), 8000 to 10000 nM; in experiment [6] (setting [9]), less than 750 nM. In experiment [3], the Kd is less than 10 nM. Also, the ΔTm at 10 µM in experiment [4] (setting [8]) is not below 10 °C. For the same molecule, the AC50 in experiment [5] (AC50) was less than 750 nM. Also, the Emax in experiment [5] (Emax) was in the range of 80 to 90%.

In the case of `CNC(=O)c1ccc(NCC#Cc2nc3c(N[C@@H]4CCN(C)C4)cccn3c2SC(F)(F)F)c(OC)c1` [Example 242], the IC50 in experiment [1] (NUGC3 cells) is less than 750 nM; in experiment [2] (setting [7]), 5000 to 8000 nM; in experiment [6] (setting [9]), less than 750 nM. In experiment [3], the equilibrium dissociation constant (Kd) is less than 10 nM. Besides, in experiment [4] (setting [8]), the ΔTm at 10 µM lay within 5 to 10 °C. Also, in experiment [4] (setting [8]), the ΔTm at 100 µM was not below 10 °C. The AC50 in experiment [5] (AC50) was in the range of 750 to 1500 nM. Moreover, in experiment [5] (Emax), the Emax lay within 80 to 90%.

In the case of `CNC(=O)c1ccc(NCC#Cc2nc3c(N[C@@H]4CCOC[C@@H]4F)cccn3c2SC(F)(F)F)c(OC)c1` [Example 101, 4-{[3-(8-{[(3R,4R)-3-fluorooxan-4-yl]amino}-3-[(trifluoromethyl)sulfanyl]imidazo[1,2-a]pyridin-2-yl)prop-2-yn-1-yl]amino}-3-methoxy-N-methylbenzamide], the figures for the IC50 in experiment [1] (NUGC3 p53 Y220C), in experiment [2] (H1299 p53 R273H) and in experiment [6] (H1299 p53 Y220C) were less than 750 nM, not below 10000 nM and less than 750 nM, respectively. Also, the equilibrium dissociation constant (Kd) in experiment [3] (kinetic KD) was less than 10 nM. For the same molecule, the ΔTm at 10 µM in experiment [4] (setting [10]) was in the range of 5 to 10 °C. Besides, in experiment [4] (setting [11]), the ΔTm at 100 µM is not below 10 °C. Also, the Emax in experiment [5] (setting [12]) lay in the range of 80 to 90%. For the same molecule, the AC50 in experiment [5] was less than 750 nM.

Turning to `COc1cc(C(N)=O)ccc1NCC#Cc1nn2c(N[C@@H]3CCN(C)C[C@@H]3F)cccc2c1SC(F)(F)F` [Example 233], the figures for the IC50 in experiment [1] (NUGC3 cells), in experiment [2] (setting [7]) and in experiment [6] (setting [9]) were less than 750 nM, 8000 to 10000 nM and less than 750 nM, respectively. Moreover, the dissociation constant Kd in experiment [3] was less than 10 nM. The ΔTm at 10 µM in experiment [4] (setting [8]) is not below 10 °C. Also, the AC50 in experiment [5] (AC50) is less than 750 nM. In experiment [5] (Emax), this molecule gave an Emax of 80 to 90%.

On to `CNC(=O)c1ccc(NCC#Cc2cc3c(N[C@@H]4CCN(C)C[C@@H]4F)cccn3c2SC(F)(F)F)cc1` [Example 357], for which the IC50 in experiment [1] (NUGC3 cells) was less than 750 nM; in experiment [2] (setting [7]) it was 5000 to 8000 nM; in experiment [6] (setting [9]) it was less than 750 nM. For the same molecule, the Kd in experiment [3] was less than 10 nM. The ΔTm at 10 µM in experiment [4] (setting [8]) was not below 10 °C. The AC50 in experiment [5] (AC50) is less than 750 nM. The Emax in experiment [5] (Emax) is more than 90%.

What is called IC50 is the point on the concentration scale where inhibition reaches its midpoint. One may read the Kd as the constant that tells how readily two partners part at equilibrium. The AC50 is the midpoint of the concentration-response curve, whichever way the signal moves. The Emax is the maximal effect, on the per cent scale that the assay sets.
